These results are taken from PubChem BioAssay (NCI).

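Five concentrations, 48 hours, 96-well plates. GI50 = concentration required for 50% inhibition of growth. The concentration for full growth arrest is given as TGI.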

Among the test systems are CCRF-CEM leukemia; HL-60(TB) leukemia; HOP-92 NSCLC; LOX IMVI melanoma; MOLT-4 leukemia; NCI-H226 lung; NCI-H522 lung; SK-MEL-2 melanoma; SK-MEL-28 melanoma; SK-OV-3 ovarian.
Common to all, as to experiment: inhibition of tumour cell growth, NCI panel, 48 h

Regarding `CCc1ccc(CCC(=O)Nc2ncc(Cc3ccc(Cl)cc3)s2)o1`, the GI50 in the test with CCRF-CEM leukemia is 0.352 µM; in the test with HL-60(TB) leukemia it was 0.289 µM; in the test with HOP-92 NSCLC it was 4.61 µM; in the test on LOX IMVI melanoma, 1.02 µM; with MOLT-4 leukemia, 0.53 µM; in the test on NCI-H522 lung it was 0.302 µM. In addition, the GI50 in the test on SK-MEL-2 melanoma is 0.684 µM; in the test on SK-MEL-28 melanoma it was 4.27 µM; in the test with SK-OV-3 ovarian, 0.449 µM. For the same compound, the TGI with CCRF-CEM leukemia was above 100 µM; in the test with HL-60(TB) leukemia, 1.93 µM; with HOP-92 NSCLC it was above 100 µM; with LOX IMVI melanoma, above 100 µM; in the test with MOLT-4 leukemia, above 100 µM; with NCI-H226 lung, above 100 µM. In addition, the TGI was 53.9 µM in the test with NCI-H522 lung, above 100 µM in the test with SK-MEL-2 melanoma, above 100 µM in the test with SK-MEL-28 melanoma and above 100 µM in the test with SK-OV-3 ovarian.

As for `COc1cc(Nc2ncc(-c3ccccc3)o2)cc(OC)c1`, the GI50 in the test with CCRF-CEM leukemia was above 25 µM; in the test on HL-60(TB) leukemia, above 25 µM; in the test on HOP-92 NSCLC, above 25 µM; with LOX IMVI melanoma it was above 25 µM; in the test on MOLT-4 leukemia, above 18.7 µM; in the test with NCI-H226 lung, above 12.5 µM. In addition, the GI50 in the test on NCI-H522 lung, in the test on SK-MEL-2 melanoma, in the test with SK-MEL-28 melanoma and in the test with SK-OV-3 ovarian was above 25 µM throughout. For the same compound, the TGI in the test on CCRF-CEM leukemia, in the test on HL-60(TB) leukemia, in the test with HOP-92 NSCLC, in the test with LOX IMVI melanoma, in the test with MOLT-4 leukemia and in the test with NCI-H226 lung was above 25 µM each time. For the same compound, the TGI in the test on NCI-H522 lung, in the test with SK-MEL-2 melanoma, in the test on SK-MEL-28 melanoma and in the test with SK-OV-3 ovarian was above 25 µM in each case.

For `Cc1cccc2nc3ccccc3c(Nc3ccc(NS(C)(=O)=O)cc3)c12`, the GI50 in the test on CCRF-CEM leukemia was 3.26 µM; in the test on HL-60(TB) leukemia it was 2.05 µM; in the test with HOP-92 NSCLC, 2.17 µM; with LOX IMVI melanoma it was 3.38 µM; in the test with MOLT-4 leukemia, 1.72 µM; in the test with NCI-H226 lung, 2.2 µM. For the same compound, the GI50 in the test on NCI-H522 lung was 8.09 µM; in the test on SK-MEL-2 melanoma, 16.9 µM; with SK-MEL-28 melanoma it was 13.8 µM; in the test on SK-OV-3 ovarian it was 6.22 µM. Further, the TGI with CCRF-CEM leukemia was 12.2 µM; in the test on HL-60(TB) leukemia, 5.53 µM; with HOP-92 NSCLC, 11.1 µM; in the test with LOX IMVI melanoma, 15.1 µM; in the test with MOLT-4 leukemia, 5.91 µM; in the test on NCI-H226 lung, 7.15 µM. Moreover, the TGI in the test on NCI-H522 lung turned out to be 22 µM; with SK-MEL-2 melanoma it was 31.8 µM; in the test with SK-MEL-28 melanoma, 29.6 µM; with SK-OV-3 ovarian, 55.5 µM.

Consider `CC1CC[P+](c2ccccc2)(c2ccccc2)c2c1ccc1ccccc21` (configuration not stated), for which the TGI in the test with CCRF-CEM leukemia is 42.1 µM; in the test with HL-60(TB) leukemia it was 21.4 µM; in the test on HOP-92 NSCLC, 5.43 µM; in the test with LOX IMVI melanoma it was 7.61 µM; in the test on MOLT-4 leukemia it was 37.6 µM; in the test on NCI-H226 lung it was 62.8 µM. For the same compound, the TGI in the test on NCI-H522 lung was 9.87 µM; in the test with SK-MEL-2 melanoma it was 7.13 µM; with SK-MEL-28 melanoma, above 73.4 µM; in the test with SK-OV-3 ovarian it was 16.4 µM. Besides, the GI50 in the test with NCI-H226 lung was 8.48 µM; with SK-MEL-28 melanoma, 13 µM; in the test on SK-OV-3 ovarian it was 2.73 µM.

Regarding `COC(=O)C1Cc2c(n(C)c3ccccc23)C(CCC(=O)O)N1Cc1ccccc1` (configuration not stated), the TGI in the test with CCRF-CEM leukemia was above 100 µM; in the test on HL-60(TB) leukemia, above 100 µM; in the test with HOP-92 NSCLC, 60.2 µM; in the test with LOX IMVI melanoma it was above 100 µM; in the test with MOLT-4 leukemia it was above 100 µM; with NCI-H226 lung, 75.2 µM. Besides, the TGI in the test with NCI-H522 lung is 91.2 µM; with SK-MEL-2 melanoma, above 100 µM; in the test on SK-MEL-28 melanoma it was 58.2 µM; with SK-OV-3 ovarian, above 100 µM.

For `CCC(C)[C@H](NC(=O)Nc1cc(C(F)(F)F)cc(C(F)(F)F)c1)C(=O)N[C@@H](Cc1cn(C)cn1)C(=O)OC` (some centres not stated), the GI50 with CCRF-CEM leukemia is 0.0146 µM; with HL-60(TB) leukemia it was 1.35 µM; in the test on HOP-92 NSCLC it was 1.31 µM; with LOX IMVI melanoma it was 0.768 µM; in the test with MOLT-4 leukemia, 0.873 µM; in the test on NCI-H226 lung, 0.571 µM. The GI50 in the test with NCI-H522 lung was 0.584 µM; with SK-MEL-2 melanoma, 1.4 µM; in the test with SK-MEL-28 melanoma it was 0.572 µM; with SK-OV-3 ovarian, 1.38 µM. The TGI worked out at 1.45 µM with CCRF-CEM leukemia; 3.22 µM with HL-60(TB) leukemia; 1.89 µM with HOP-92 NSCLC; 1.83 µM in the test on LOX IMVI melanoma; 2.24 µM with MOLT-4 leukemia; 1.29 µM with NCI-H226 lung. Besides, the TGI in the test with NCI-H522 lung was 1.15 µM; with SK-MEL-2 melanoma it was 1.89 µM; with SK-MEL-28 melanoma, 1.1 µM; in the test with SK-OV-3 ovarian, 1.82 µM.

Take `O=C1CC(c2ccccc2)=Nc2ccccc2N1`: the TGI in the test on CCRF-CEM leukemia is above 100 µM; in the test with HL-60(TB) leukemia it was above 100 µM; with HOP-92 NSCLC, above 100 µM; in the test on LOX IMVI melanoma, 97.6 µM; in the test with MOLT-4 leukemia it was above 100 µM; with NCI-H226 lung it was above 100 µM. The TGI in the test on NCI-H522 lung, in the test on SK-MEL-2 melanoma, with SK-MEL-28 melanoma and in the test with SK-OV-3 ovarian was above 100 µM in each case.

As to `CCN(Cc1ccccc1)C1CCN(Cc2cc(Br)ccc2O)CC1`, the GI50 is 39.3 µM with CCRF-CEM leukemia; 31.3 µM with HL-60(TB) leukemia; 10.4 µM with HOP-92 NSCLC; 23.3 µM in the test on LOX IMVI melanoma; 32.6 µM in the test with MOLT-4 leukemia; above 100 µM in the test with NCI-H226 lung. For the same compound, the GI50 in the test on NCI-H522 lung was 17 µM; with SK-MEL-2 melanoma it was 85.4 µM; with SK-MEL-28 melanoma it was 22 µM; in the test with SK-OV-3 ovarian, 77.4 µM. The TGI was above 100 µM with CCRF-CEM leukemia; 98.8 µM in the test with HL-60(TB) leukemia; above 100 µM in the test with HOP-92 NSCLC; 63.6 µM in the test on LOX IMVI melanoma; above 100 µM in the test with MOLT-4 leukemia; above 100 µM in the test on NCI-H226 lung. In addition, the TGI was 40.3 µM with NCI-H522 lung, above 100 µM in the test on SK-MEL-2 melanoma, 59.4 µM in the test with SK-MEL-28 melanoma and above 100 µM with SK-OV-3 ovarian.

On to `O=S(=O)(NNc1ccccc1)c1ccccc1`, for which the TGI with CCRF-CEM leukemia worked out at 50 µM; in the test on HL-60(TB) leukemia it was 13.5 µM; in the test on HOP-92 NSCLC, 55.4 µM; with LOX IMVI melanoma it was 13.6 µM; in the test on MOLT-4 leukemia, 99 µM; with NCI-H226 lung it was 18.5 µM. In addition, the TGI is 31.1 µM in the test on NCI-H522 lung, 44.3 µM in the test with SK-MEL-2 melanoma, above 100 µM in the test with SK-MEL-28 melanoma and above 100 µM in the test with SK-OV-3 ovarian.
